Assay results reported in ChEMBL document CHEMBL1143804, “Synthesis and antibacterial evaluation of 1beta-methyl-2-[5-(1-methoxyimino-2-substituted sulfonamide ethyl)pyrrolidin-3-ylthio]carbapenems and their related compounds” (2007).
In brackets after ≈: the same amount, converted by molar mass.

Assays:
[1] = test system: Staphylococcus aureus; assay: Antibacterial activity against Staphylococcus aureus 209P; assay type: functional
[2] = test system: Proteus mirabilis; assay: Antibacterial activity against Proteus mirabilis 174/3; assay type: functional
[3] = test system: Micrococcus luteus; assay: Antibacterial activity against Micrococcus luteus ATCC 9341; assay type: functional
[4] = Antibacterial activity against Salmonella oranienberg; assay type: functional, Salmonella enterica subsp. enterica serovar Oranienburg; conditions: Salmonella enterica
[5] = test system: Salmonella paratyphi; assay: Antibacterial activity against Salmonella paratyphi A; assay type: functional, Salmonella enterica subsp. enterica serovar Paratyphi A; conditions: Salmonella enterica
[6] = test system: Staphylococcus aureus; assay: Antibacterial activity against Staphylococcus aureus 285; assay type: functional
[7] = test system: Salmonella; assay: Antibacterial activity against Salmonella orion; assay type: functional
[8] = test system: Klebsiella pneumoniae; assay: Antibacterial activity against Klebsiella pneumonise 477; assay type: functional
[9] = test system: Escherichia coli; assay: Antibacterial activity against Escherichia coil V6311/65; assay type: functional
[10] = test system: Salmonella typhimurium; assay: Antibacterial activity against Salmonella Typhimurium; assay type: functional, Salmonella enterica subsp. enterica serovar Typhimurium; conditions: Salmonella enterica
[11] = test system: Enterobacter cloacae; assay: Antibacterial activity against Enterobactor cloacae 1321E; assay type: functional
[12] = test system: Bacillus subtilis; assay: Antibacterial activity against Bacillus subtilts ATCC 6633; assay type: functional
[13] = test system: Staphylococcus aureus; assay: Antibacterial activity against Staphylococcus aureus 503; assay type: functional
[14] = test system: Burkholderia cepacia; assay: Antibacterial activity against Pseudomonas cepacia; assay type: functional
[15] = test system: Serratia marcescens; assay: Antibacterial activity against Serratia marcescens 370; assay type: functional
[16] = test system: Staphylococcus aureus; assay: Antibacterial activity against Staphylococcus aureus SG511; assay type: functional
[17] = test system: Escherichia coli; assay: Antibacterial activity against Escherichia coli 086; assay type: functional
[18] = test system: Pseudomonas aeruginosa; assay: Antibacterial activity against Pseudomonas aeruginosa 9027; assay type: functional
[19] = test system: Streptococcus agalactiae; assay: Antibacterial activity against Streptococcus agalactiae B; assay type: functional
[20] = test system: Escherichia coli; assay: Antibacterial activity against Escherichia coli TEM; assay type: functional
[21] = test system: Proteus vulgaris; assay: Antibacterial activity against Proteus vulgaris 868; assay type: functional
[22] = test system: Pseudomonas aeruginosa; assay: Antibacterial activity against Pseudomonas aeruginosa 110/2; assay type: functional
[23] = test system: Klebsiella aerogenes; assay: Antibacterial activity against Klebsiella aerogenes 1522E; assay type: functional
[24] = test system: Proteus mirabilis; assay: Antibacterial activity against Proteus mirabilis 112/3; assay type: functional
[25] = test system: Streptococcus pyogenes; assay: Antibacterial activity against Streptococcus pyogenes 308A; assay type: functional
[26] = test system: Priestia megaterium; assay: Antibacterial activity against Bacillus megaterium; assay type: functional
[27] = test system: Enterobacter cloacae; assay: Antibacterial activity against Enterobacter cloacae 417; assay type: functional
[28] = test system: Serratia marcescens; assay: Antibacterial activity against Serratia marcescens 14273; assay type: functional
[29] = test system: Streptococcus pyogenes; assay: Antibacterial activity against Streptococcus pyogenes 77A; assay type: functional
[30] = test system: Escherichia coli; assay: Antibacterial activity against Escherichia coli 0126; assay type: functional
[31] = test system: Escherichia coli; assay: Antibacterial activity against Escherichia coil 1507; assay type: functional
[32] = test system: Salmonella typhi; assay: Antibacterial activity against Salmonella typhi; assay type: functional, Salmonella enterica subsp. enterica serovar Typhi; conditions: Salmonella enterica
[33] = test system: Trueperella pyogenes; assay: Antibacterial activity against Corynebacterium pyogenes; assay type: functional
[34] = test system: Pseudomonas aeruginosa; assay: Antibacterial activity against Pseudomonas aeruginosa 77/2; assay type: functional
[35] = test system: Corynebacterium diphtheriae; assay: Antibacterial activity against Corynebacterium diphtheriae; assay type: functional
[36] = test system: Enterobacter cloacae; assay: Antibacterial activity against Enterobacter cloacae; assay type: functional
[37] = test system: Providencia rettgeri; assay: Antibacterial activity against Proteus rettgeri 936; assay type: functional
[38] = test system: Escherichia coli; assay: Antibacterial activity against Escherichia coli 0114; assay type: functional
[39] = test system: Pasteurella multocida; assay: Antibacterial activity against Pasteurella multocida; assay type: functional
[40] = test system: Pseudomonas aeruginosa; assay: Antibacterial activity against Pseudomonas aeruginosa 880/2; assay type: functional
[41] = test system: Enterococcus durans; assay: Antibacterial activity against Streptococcus durans D; assay type: functional
[42] = test system: Escherichia coli; assay: Antibacterial activity against Escherichia coli DC2; assay type: functional
[43] = test system: Staphylococcus aureus; assay: Antibacterial activity against Staphylococcus aureus giorgio; assay type: functional
[44] = Antibacterial activity against Salmonella give; assay type: functional, Salmonella enterica subsp. enterica serovar Give; conditions: Salmonella enterica
[45] = test system: Enterococcus faecium; assay: Antibacterial activity against Streptococcus faecium 77A; assay type: functional
[46] = test system: Serratia marcescens; assay: Antibacterial activity against Serratia marcescens 6093; assay type: functional
[47] = test system: Providencia rettgeri; assay: Antibacterial activity against Proteus rettgeri 937; assay type: functional

With `CC(O)[C@H]1C(=O)N2C(C(=O)O)=C(SCCNC=N)C[C@H]12` (single isomer, unassigned) [IMIPENEM ANHYDROUS] the MIC [1] was 0.01 µg/mL (≈ 0.0334 µM), the MIC [2] was 0.1 µg/mL (≈ 0.334 µM) and the MIC [3] was 0.01 µg/mL (≈ 0.0334 µM). For the same compound, the MIC [4] was 0.4 µg/mL (≈ 1.34 µM), the MIC [5] was 0.1 µg/mL (≈ 0.334 µM) and the MIC [6] was 0.013 µg/mL (≈ 0.0434 µM). It also gave an MIC [7] of 0.2 µg/mL (≈ 0.668 µM), an MIC [8] of 0.2 µg/mL (≈ 0.668 µM) and an MIC [9] of 0.05 µg/mL (≈ 0.167 µM). It also gave an MIC [10] of 0.781 µg/mL (≈ 2.61 µM), an MIC [11] of 0.098 µg/mL (≈ 0.327 µM) and an MIC [12] of 0.03 µg/mL (≈ 0.1 µM). The MIC [13] was under 0.01 µg/mL, the MIC [14] was 0.8 µg/mL (≈ 2.67 µM) and the MIC [15] was 0.2 µg/mL (≈ 0.668 µM). It also gave an MIC [16] of 0.098 µg/mL (≈ 0.327 µM), an MIC [17] of 0.2 µg/mL (≈ 0.668 µM) and an MIC [18] of 0.781 µg/mL (≈ 2.61 µM). It also gave an MIC [19] of 0.01 µg/mL (≈ 0.0334 µM), an MIC [20] of 0.195 µg/mL (≈ 0.651 µM) and an MIC [21] of 0.1 µg/mL (≈ 0.334 µM). The MIC [22] was 0.8 µg/mL (≈ 2.67 µM), the MIC [23] was 0.098 µg/mL (≈ 0.327 µM) and the MIC [24] was 0.2 µg/mL (≈ 0.668 µM). The MIC [25] was under 0.01 µg/mL, the MIC [26] was 0.03 µg/mL (≈ 0.1 µM) and the MIC [27] was 0.1 µg/mL (≈ 0.334 µM). It also gave an MIC [28] of 0.8 µg/mL (≈ 2.67 µM), an MIC [29] of 0.013 µg/mL (≈ 0.0434 µM) and an MIC [30] of 0.1 µg/mL (≈ 0.334 µM). It also gave an MIC [31] of 0.1 µg/mL (≈ 0.334 µM), an MIC [32] of 0.05 µg/mL (≈ 0.167 µM) and an MIC [33] of under 0.01 µg/mL. It also gave an MIC [34] of 0.8 µg/mL (≈ 2.67 µM), an MIC [35] of 0.01 µg/mL (≈ 0.0334 µM) and an MIC [36] of 0.1 µg/mL (≈ 0.334 µM). For the same compound, the MIC [37] was 0.2 µg/mL (≈ 0.668 µM), the MIC [38] was 0.2 µg/mL (≈ 0.668 µM) and the MIC [39] was under 0.01 µg/mL. For the same compound, the MIC [40] was 0.8 µg/mL (≈ 2.67 µM), the MIC [41] was 0.1 µg/mL (≈ 0.334 µM) and the MIC [42] was 0.391 µg/mL (≈ 1.31 µM). It also gave an MIC [43] of 0.01 µg/mL (≈ 0.0334 µM), an MIC [44] of 0.2 µg/mL (≈ 0.668 µM) and an MIC [45] of under 0.01 µg/mL. For the same compound, the MIC [46] was 0.4 µg/mL (≈ 1.34 µM) and the MIC [47] was 0.2 µg/mL (≈ 0.668 µM).
